In ChEMBL document CHEMBL4825684, “Design, synthesis and biological evaluation of N-anthraniloyl tryptamine derivatives as pleiotropic molecules for the therapy of malignant glioma” (Eur J Med Chem, 2021):
The source made the active and inactive calls. No cut-off for these calls is given here.

Experiments:
U-251 = experiment: Antiproliferative activity against human U-251 cells assessed as growth inhibition incubated for 72 hrs by CCK-8 assay; type: functional, cell-based; settings: U-251, 72 h
U-87 MG = experiment: Antiproliferative activity against human U-87 MG cells assessed as growth inhibition incubated for 72 hrs by CCK-8 assay; type: functional, cell-based, U-87MG ATCC
[1] = molecular target: T1, Prostaglandin G/H synthase 2 (Homo sapiens, UniProt P35354); experiment: Inhibition of human COX2 assessed as fluorescence by microplate reader
T1 sequence (P35354 whole entry): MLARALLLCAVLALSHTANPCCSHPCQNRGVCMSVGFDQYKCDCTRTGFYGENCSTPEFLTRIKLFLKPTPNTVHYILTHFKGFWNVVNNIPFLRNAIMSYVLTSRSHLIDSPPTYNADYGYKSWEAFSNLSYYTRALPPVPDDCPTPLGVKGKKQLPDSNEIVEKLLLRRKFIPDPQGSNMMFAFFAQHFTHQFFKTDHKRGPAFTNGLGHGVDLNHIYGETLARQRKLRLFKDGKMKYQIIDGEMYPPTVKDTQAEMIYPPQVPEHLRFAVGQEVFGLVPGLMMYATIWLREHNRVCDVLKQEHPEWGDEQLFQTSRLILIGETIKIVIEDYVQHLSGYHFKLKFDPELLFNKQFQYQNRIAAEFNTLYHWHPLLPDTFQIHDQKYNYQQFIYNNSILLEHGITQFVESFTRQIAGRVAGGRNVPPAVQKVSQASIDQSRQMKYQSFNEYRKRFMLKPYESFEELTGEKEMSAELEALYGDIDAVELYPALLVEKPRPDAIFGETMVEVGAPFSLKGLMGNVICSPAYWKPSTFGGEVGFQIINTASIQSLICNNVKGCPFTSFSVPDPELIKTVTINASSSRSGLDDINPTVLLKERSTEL

C6 [2] = experiment: Antiproliferative activity against rat C6 cells assessed as growth inhibition incubated for 72 hrs by CCK-8 assay; type: functional, cell-based; settings: C6, 72 h
BV-2 = experiment: Inhibition of MMP9 production in mouse BV-2 cells co-cultured with rat C6 glioma cells at 2 uM incubated for 24 hrs by Western blot analysis; type: functional, cell-based
C6 [3] = experiment: Antitumor activity against rat C6 cells inoculated orthotopic Sprague-Dawley rat model assessed as increase in E-cadherin in tumor tissue at 50 mg/kg, ip twice a day treated 3 days after tumor cell injection measured for 13 days after tumor implantation by Western blot analysis; type: functional, organism-based; settings: time 3.0 day
C6 [4] = experiment: Antitumor activity against rat C6 cells inoculated orthotopic Sprague-Dawley rat model assessed as reduction tumor volume at 50 mg/kg, ip twice a day treated 3 days after tumor cell injection measured for 13 days after tumor implantation; type: functional, organism-based; settings: time 3.0 day
C6 [5] = experiment: Antitumor activity against rat C6 cells inoculated orthotopic Sprague-Dawley rat model assessed as decrease in p-STAT3 in tumor tissue at 50 mg/kg, ip twice a day treated 3 days after tumor cell injection measured for 13 days after tumor implantation by Western blot analysis; type: functional, organism-based; settings: time 3.0 day
C6 [6] = experiment: Antitumor activity against rat C6 cells inoculated orthotopic Sprague-Dawley rat model assessed as decrease in VEGF-A in tumor tissue at 50 mg/kg, ip twice a day treated 3 days after tumor cell injection measured for 13 days after tumor implantation by Western blot analysis; type: functional, organism-based; settings: time 3.0 day
[7] = Toxicity in rat C6 cells inoculated orthotopic Sprague-Dawley rat model assessed as body weight change at 50 mg/kg, ip twice a day administered for 13 days of tumor implantation; type: organism-based; settings: in vivo, 312 h, time 13 day
C6 [8] = experiment: Antitumor activity against rat C6 cells inoculated orthotopic Sprague-Dawley rat model assessed as decrease in PGE2 in tumor tissue at 50 mg/kg, ip twice a day treated 3 days after tumor cell injection measured for 13 days after tumor implantation […]; type: functional, organism-based; settings: time 3.0 day
C6 [9] = experiment: Antitumor activity against rat C6 cells inoculated orthotopic Sprague-Dawley rat model assessed as reduction tumor weight at 50 mg/kg, ip twice a day treated 3 days after tumor cell injection measured for 13 days after tumor implantation; type: functional, organism-based; settings: time 3.0 day
C6 [10] = experiment: Antitumor activity against rat C6 cells inoculated orthotopic Sprague-Dawley rat model assessed as tumor growth inhibition at 50 mg/kg, ip twice a day treated 3 days after tumor cell injection measured for 13 days after tumor implantation; type: functional; settings: 72 h, time 3 day, read-out: TGI

Row | IC50 (U-251) [µM] | IC50 (U-87 MG) [µM] | IC50 [1] [µM] | Structure (SMILES) | IC50 (C6 [2]) [µM] | other results
1 | 30.5 | > 40 | > 40 | Cc1ccccc1Nc1ccccc1C(=O)NCCc1c[nH]c2ccccc12 | > 40 | 
2 | 24.4 | > 40 | 17.6 | Cc1cncc(Nc2ccccc2C(=O)NCCc2c[nH]c3ccccc23)c1 | > 40 | 
3 | > 40 | > 40 | 1.21 | Nc1ccccc1Nc1ccccc1C(=O)NCCc1c[nH]c2ccccc12 | > 40 | inhibition (BV-2): Active
4 | 24.6 | > 40 | 1.96 | Cc1ncccc1Nc1ccccc1C(=O)NCCc1c[nH]c2ccccc12 | > 40 | 
5 | 13.3 | 23.4 | 31 | Cc1cccc(Nc2ccccc2C(=O)NCCc2c[nH]c3ccccc23)c1 | > 40 | 
6 | 17.9 | > 40 | 19.6 | Cc1ccc(Nc2ccccc2C(=O)NCCc2c[nH]c3ccccc23)cn1 | > 40 | 
7 | 25.2 | > 40 | 23.7 | O=C(NCCc1c[nH]c2ccccc12)c1ccccc1Nc1cccnc1 | > 40 | 
8 | 26.2 | > 40 | 4.23 | O=C(NCCc1c[nH]c2ccccc12)c1ccccc1Nc1ccccc1F | > 40 | 
9 | > 40 | > 40 | > 40 | O=C(NCCc1c[nH]c2ccccc12)c1ccccc1Nc1ccc2nccnc2c1 | > 40 | 
10 | 14.8 | > 40 | > 40 | O=C(NCCc1c[nH]c2ccccc12)c1ccccc1Nc1ccccc1Cl | > 40 | 
11 | 17.3 | 35.7 | > 40 | O=C(NCCc1c[nH]c2ccccc12)c1ccccc1Nc1ccc(C(F)(F)F)cc1 | > 40 | 
12 | > 40 | > 40 |  | Cc1ccc(-c2cc(C(F)(F)F)nn2-c2ccc(S(N)(=O)=O)cc2)cc1 [CELECOXIB] | > 40 | 
13 | 22.2 | > 40 | > 40 | O=C(NCCc1c[nH]c2ccccc12)c1ccccc1Nc1cccc(Cl)c1 | > 40 | 
14 |  |  |  | Cn1nnc2c(C(N)=O)ncn2c1=O [TEMOZOLOMIDE] |  | Activity (C6 [3]): Active; Activity (C6 [4]): Active; Activity (C6 [5]): Active; Activity (C6 [6]): Active; Activity [7]: Toxic; Activity (C6 [8]): Active; Activity (C6 [9]): Active; inhibition in vivo at 50 mg/kg (C6 [10]): 54.8%
15 | > 40 | > 40 |  | COc1ccc2[nH]cc(CCNC(C)=O)c2c1 [MELATONIN] | > 40 | 
16 | > 40 | > 40 | 5.68 | O=C(NCCc1c[nH]c2ccccc12)c1ccccc1Nc1ccc(Br)cc1 | > 40 | 
17 | 32.3 | > 40 | 6.21 | COc1ccc(Nc2ccccc2C(=O)NCCc2c[nH]c3ccccc23)cc1 | > 40 | 
18 | > 40 | > 40 | 1.43 | CN(C)c1ccc(Nc2ccccc2C(=O)NCCc2c[nH]c3ccccc23)cc1 | > 40 | inhibition (BV-2): Active
19 | 21 | > 40 | > 40 | O=C(NCCc1c[nH]c2ccccc12)c1ccccc1Nc1cccc(Br)c1 | > 40 | 
20 | 27.5 | > 40 | 2.96 | O=C(NCCc1c[nH]c2ccccc12)c1ccccc1Nc1cccnc1Cl | 24.1 | 
21 | 32.9 | > 40 | > 40 | O=C(NCCc1c[nH]c2ccccc12)c1ccccc1Nc1ccccc1I | > 40 | 
22 | 18.2 | > 40 | > 40 | CCCCc1ccc(Nc2ccccc2C(=O)NCCc2c[nH]c3ccccc23)cc1 | > 33.7 | 
23 | 25.1 | > 40 | > 40 | O=C(NCCc1c[nH]c2ccccc12)c1ccccc1Nc1cncc(Br)c1 | > 40 | 
24 | 13.7 | 34.7 | 5.96 | Cc1ccc(Nc2ccccc2C(=O)NCCc2c[nH]c3ccccc23)cc1 | > 40 | 
25 | 21.4 | > 40 | > 40 | O=C(NCCc1c[nH]c2ccccc12)c1ccccc1Nc1ccccc1Br | 17.9 | 
26 | 12.8 | > 40 | 2.46 | O=C(NCCc1c[nH]c2ccccc12)c1ccccc1Nc1ccc(F)cc1 | 27.1 | 
27 | 17.9 | > 40 | 3.98 | O=C(NCCc1c[nH]c2ccccc12)c1ccccc1Nc1ccc(Cl)cc1 | > 40 | 
28 | 20.4 | > 40 | > 40 | O=C(NCCc1c[nH]c2ccccc12)c1ccccc1Nc1cccc(F)c1 | > 40 | 
29 | > 40 | > 40 | > 40 | O=C(NCCc1c[nH]c2ccccc12)c1ccccc1Nc1cccc2cccnc12 | > 40 | 
